Test results published in BindingDB's records for doi:10.1016/j.bmc.2007.02.010 (Princeton University, 2007).

Molecular target: T1, E3 ubiquitin-protein ligase XIAP [241-356] (Homo sapiens, UniProt P98170)
T1 construct: 241-356
Test: Competitive Fluorescent-binding Assay
Settings: pH 7; 22 °C
Protocol: AVPC-badan can be displaced from the binding pocket of the protein by test compounds. As the dye is displaced from the binding pocket, the emission is reduced and resembles that of the AVPC-badan dye in solution alone. The AUC for the emission spectra of AVPC-badan alone, AVPC-badan, and for the Smac mimic bound to BIR3-XIAP are used to calculate a relative Kd for the Smac mimic. The relative Kd is then converted to an absolute Kd using the Kd value for AVPC-badan, which was determined in a titration assay.

T1 sequence (P98170 241-356): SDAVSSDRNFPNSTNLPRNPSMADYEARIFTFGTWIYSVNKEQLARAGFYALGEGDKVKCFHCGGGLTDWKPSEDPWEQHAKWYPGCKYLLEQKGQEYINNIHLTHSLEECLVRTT

## CC[C@@H](C)[C@H](NC(=O)[C@@H]1CCCN1C(=O)c1coc([C@H](C)N)n1)C(=O)O [(2S,3R)-2-{[(2S)-1-({2-[(1S)-1-aminoethyl]-1,3-oxazol-4-yl}carbonyl)pyrrolidin-2-yl]formamido}-3-methylpentanoic acid]
  Kd: 300 µM
